Experimental data published in patent US8324172B2, “G protein coupled receptor agonists and antagonists and methods of activating and inhibiting G protein coupled receptors using the same” (Tufts Medical Center, Inc., priority 2000, dated 2012).
Positions count from the first letter of the chain named. Entries after “also recorded” stand apart in the source; their conditions may differ. Where a SMILES comes first, the peptide text is derived from it. Where no end group is shown, it is not given here. The star is where a group is joined. Palmitoyl = CCCCCCCCCCCCCCCC(=O)*

How the values were obtained:
PAR1 [1] = target: T1, PAR1 (Homo sapiens, UniProt P25116); test: Inhibition of PAR1-dependent platelet Ca2+ signal; assay type: cell-based; conditions: SFLLRN (or thrombin) after peptide pre-treatment
T1 construct: expressed in transfected cells
T1 sequence (P25116 22-425): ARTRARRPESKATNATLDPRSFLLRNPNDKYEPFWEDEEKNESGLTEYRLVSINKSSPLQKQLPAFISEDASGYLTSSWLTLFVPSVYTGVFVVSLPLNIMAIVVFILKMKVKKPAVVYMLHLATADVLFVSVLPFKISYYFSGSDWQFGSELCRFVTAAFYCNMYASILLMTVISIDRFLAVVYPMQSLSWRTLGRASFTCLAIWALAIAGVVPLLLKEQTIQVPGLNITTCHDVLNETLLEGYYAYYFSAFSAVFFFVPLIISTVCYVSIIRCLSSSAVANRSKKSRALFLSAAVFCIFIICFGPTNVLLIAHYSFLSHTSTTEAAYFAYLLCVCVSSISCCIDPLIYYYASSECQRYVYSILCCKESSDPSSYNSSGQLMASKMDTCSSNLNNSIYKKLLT
Method: Platelet Ca2+ measurements were performed as in Example 1.
The integrated Ca^2+ response for the individual treatments are relative to the full Ca^2+ responses for each agonist (100%) recorded in the absence of P4pal-10 (top trace).

[2] = test system: thrombin receptors on human platelets; test: Inhibition of thrombin-induced human platelet aggregation; conditions: 3 nM thrombin; LBS1-PE at 25 micromolar
cholecystokinin B (CCKB) = target: T2, cholecystokinin B (CCKB) (Homo sapiens, UniProt P32239); test: InsP formation in COS7 cells expressing CCKB; assay type: cell-based
T2 construct: expressed in transfected cells; host or cells: COS7, transient
T2 sequence (P32239 1-447): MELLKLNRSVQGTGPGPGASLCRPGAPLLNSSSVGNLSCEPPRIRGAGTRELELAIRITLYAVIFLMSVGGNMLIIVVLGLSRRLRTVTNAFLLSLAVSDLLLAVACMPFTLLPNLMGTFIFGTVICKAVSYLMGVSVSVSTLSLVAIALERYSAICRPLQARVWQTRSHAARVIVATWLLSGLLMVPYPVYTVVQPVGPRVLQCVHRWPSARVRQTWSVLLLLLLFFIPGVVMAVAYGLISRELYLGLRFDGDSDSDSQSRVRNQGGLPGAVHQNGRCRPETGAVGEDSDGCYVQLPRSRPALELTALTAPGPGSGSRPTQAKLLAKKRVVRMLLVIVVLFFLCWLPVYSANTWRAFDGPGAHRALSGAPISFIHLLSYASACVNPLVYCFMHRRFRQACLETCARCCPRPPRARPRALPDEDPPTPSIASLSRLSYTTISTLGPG

substance P (Sub-P) = target: T3, substance P (Sub-P) (Homo sapiens, UniProt P25103); test: InsP formation in COS7 cells expressing substance P receptor; assay type: cell-based
T3 construct: expressed in transfected cells; host or cells: COS7, transient

PAR4 = target: T4, PAR4 (Homo sapiens, UniProt Q96RI0); test: InsP formation in COS7 cells expressing PAR4; assay type: cell-based; parameters: expressed in transfected cells; host or cells: COS7, transient; conditions: COS7 cells
T4 sequence (Q96RI0 18-385): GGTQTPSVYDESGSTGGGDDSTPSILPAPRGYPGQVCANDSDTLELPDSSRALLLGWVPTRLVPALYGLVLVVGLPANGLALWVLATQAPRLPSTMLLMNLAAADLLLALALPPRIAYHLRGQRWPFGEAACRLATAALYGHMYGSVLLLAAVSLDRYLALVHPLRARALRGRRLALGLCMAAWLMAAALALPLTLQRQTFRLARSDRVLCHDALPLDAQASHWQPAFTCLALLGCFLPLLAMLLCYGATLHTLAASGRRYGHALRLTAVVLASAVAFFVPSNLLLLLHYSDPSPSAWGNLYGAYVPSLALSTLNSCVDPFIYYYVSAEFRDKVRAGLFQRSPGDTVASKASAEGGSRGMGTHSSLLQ

[3] = target: T5, somatostatin receptor (SSTR2) (Rattus norvegicus, UniProt P30680); test: InsP formation in COS7 cells expressing SSTR2; assay type: cell-based; conditions: COS7 cells
T5 construct: expressed in transfected cells; host or cells: COS7, transient

PAR1 [4] = target: T1, PAR1; test: InsP formation (PLC-β) in Rat1 fibroblasts expressing human PAR1; assay type: cell-based
cholecystokinin A (CCKA) = target: T6, cholecystokinin A (CCKA) (Homo sapiens, UniProt P32238); test: InsP formation in COS7 cells expressing CCKA; assay type: cell-based
T6 construct: expressed in transfected cells; host or cells: COS7, transient
T6 sequence (P32238 1-428): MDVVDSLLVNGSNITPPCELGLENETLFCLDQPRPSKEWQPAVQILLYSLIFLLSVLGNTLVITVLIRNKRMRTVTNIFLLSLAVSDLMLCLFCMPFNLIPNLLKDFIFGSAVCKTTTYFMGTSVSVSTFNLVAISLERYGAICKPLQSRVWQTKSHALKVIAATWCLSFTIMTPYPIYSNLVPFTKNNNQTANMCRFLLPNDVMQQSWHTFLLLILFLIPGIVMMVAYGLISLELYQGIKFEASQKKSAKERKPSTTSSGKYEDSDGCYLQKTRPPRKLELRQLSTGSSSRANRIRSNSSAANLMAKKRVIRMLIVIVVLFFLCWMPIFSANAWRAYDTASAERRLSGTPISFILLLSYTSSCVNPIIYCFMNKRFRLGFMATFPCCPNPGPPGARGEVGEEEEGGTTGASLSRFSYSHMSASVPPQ

[5] = test system: untransfected Rat1 cells / COS7 cells without PAR1; test: InsP formation in COS7 cells or Rat1 fibroblasts in the absence of the PAR1 receptor; assay type: cell-based; conditions: for InsP stimulation in the absence of the PAR1 receptor: COS7 cells or Rat1 fibroblasts
PAR2 = target: T7, PAR2 (Homo sapiens, UniProt P55085); test: InsP formation in COS7 cells expressing PAR2; assay type: cell-based; conditions: 0.1-10 micromolar pepducin
T7 construct: expressed in transfected cells; host or cells: COS7 (transient)
T7 sequence (P55085 26-397): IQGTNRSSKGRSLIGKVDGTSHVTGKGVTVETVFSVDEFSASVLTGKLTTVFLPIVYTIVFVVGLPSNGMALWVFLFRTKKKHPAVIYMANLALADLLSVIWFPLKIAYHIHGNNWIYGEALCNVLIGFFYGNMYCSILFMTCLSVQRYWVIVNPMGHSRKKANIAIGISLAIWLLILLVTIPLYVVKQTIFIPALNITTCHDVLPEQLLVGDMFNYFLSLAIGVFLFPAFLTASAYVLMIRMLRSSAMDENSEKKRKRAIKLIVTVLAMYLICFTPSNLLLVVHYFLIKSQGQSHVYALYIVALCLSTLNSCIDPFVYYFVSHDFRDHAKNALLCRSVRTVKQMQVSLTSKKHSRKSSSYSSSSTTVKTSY

P2Y12 ADP receptor = target: T8, P2Y12 ADP receptor (Homo sapiens, UniProt Q9H244); test: Irreversible aggregation of SFLLRN-activated human platelets (ADP autocrine response); assay type: cell-based; conditions: 3 μM SFLLRN
T8 construct: endogenous in cells; host or cells: gel-purified human platelets
Excerpt: Recently, the P2Y12 adenosine diphosphate (ADP) receptor was cloned by three independent groups (Hollopeter et al., Nature 409:202 (2001); Zhang et al., J. Biol. Chem. 276:8605 (2001); and Takasaki et al., Mol. Pharmacol. 60:432 (2001)) and shown to be the long-sought after target of the thienopyridine drugs clopidogrel and ticlopidine (Gachet et al., Biochem Pharmacol 40:2683 (1990); Mills et al., Arterioscler Thromb 12:430 (1992)). […] P2Y12 plays such a critical role in thrombus formation because it can modulate the strength of platelet-platelet adhesive interactions via multiple receptors such as PAR1. Inputs from P2Y12 stabilize the critical transition point of platelet-platelet aggregates during the progression from early reversible GPIIb-IIIa-fibrinogen binding to the late phase of irreversible binding to fibrinogen.
Aggregometry was performed by light scattering.

delta377 PAR1 = test: InsP formation in COS7 cells expressing delta377 (C-tail deleted) PAR1 mutant; assay type: cell-based, human
S309P PAR1 = target: T9, S309P PAR1 (Homo sapiens, UniProt P25116, S309P); test: InsP formation in COS7 cells expressing S309P PAR1 mutant; assay type: cell-based; conditions: relative to wild type PAR1
T9 construct: expressed in transfected cells; host or cells: COS7, transient
T9 sequence (P25116 22-425 S309P): T1 sequence (P25116 22-425) with S288P

platelets = test: Platelet intracellular Ca2+, agonist activity of peptides
MC4R = target: T10, MC4R (Homo sapiens, UniProt P32245); test: Adenylate cyclase activity in COS7 fibroblasts transfected with MC4R; assay type: cell-based
T10 construct: expressed in transfected cells; host or cells: COS7, transient
T10 sequence (P32245 whole entry): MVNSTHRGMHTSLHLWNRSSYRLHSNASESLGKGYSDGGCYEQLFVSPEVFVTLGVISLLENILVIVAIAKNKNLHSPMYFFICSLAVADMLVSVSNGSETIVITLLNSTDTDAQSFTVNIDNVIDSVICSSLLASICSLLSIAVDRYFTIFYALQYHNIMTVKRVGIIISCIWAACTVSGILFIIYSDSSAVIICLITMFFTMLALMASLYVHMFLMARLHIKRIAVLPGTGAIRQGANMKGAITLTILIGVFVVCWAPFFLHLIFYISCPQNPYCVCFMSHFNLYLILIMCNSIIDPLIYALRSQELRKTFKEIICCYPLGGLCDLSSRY

T5 sequence (P30680 whole entry): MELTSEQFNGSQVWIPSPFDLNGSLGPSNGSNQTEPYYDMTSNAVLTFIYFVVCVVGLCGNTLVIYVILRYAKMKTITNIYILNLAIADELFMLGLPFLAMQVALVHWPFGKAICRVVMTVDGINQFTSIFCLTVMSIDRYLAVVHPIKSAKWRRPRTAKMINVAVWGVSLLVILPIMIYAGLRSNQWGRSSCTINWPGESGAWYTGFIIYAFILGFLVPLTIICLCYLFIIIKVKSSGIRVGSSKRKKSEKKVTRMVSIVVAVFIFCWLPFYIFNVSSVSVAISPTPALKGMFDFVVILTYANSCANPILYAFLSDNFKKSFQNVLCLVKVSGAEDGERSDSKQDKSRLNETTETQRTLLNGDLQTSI
T8 sequence (Q9H244 whole entry): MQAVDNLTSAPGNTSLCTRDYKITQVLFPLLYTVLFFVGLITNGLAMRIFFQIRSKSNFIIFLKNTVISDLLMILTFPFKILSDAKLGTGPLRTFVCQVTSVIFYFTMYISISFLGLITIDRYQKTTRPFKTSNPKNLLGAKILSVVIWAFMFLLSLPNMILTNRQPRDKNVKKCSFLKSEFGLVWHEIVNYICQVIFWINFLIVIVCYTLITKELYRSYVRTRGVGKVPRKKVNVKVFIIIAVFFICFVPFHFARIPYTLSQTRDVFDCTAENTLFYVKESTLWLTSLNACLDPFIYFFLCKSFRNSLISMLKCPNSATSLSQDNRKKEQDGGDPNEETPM
T3 sequence (P25103 whole entry): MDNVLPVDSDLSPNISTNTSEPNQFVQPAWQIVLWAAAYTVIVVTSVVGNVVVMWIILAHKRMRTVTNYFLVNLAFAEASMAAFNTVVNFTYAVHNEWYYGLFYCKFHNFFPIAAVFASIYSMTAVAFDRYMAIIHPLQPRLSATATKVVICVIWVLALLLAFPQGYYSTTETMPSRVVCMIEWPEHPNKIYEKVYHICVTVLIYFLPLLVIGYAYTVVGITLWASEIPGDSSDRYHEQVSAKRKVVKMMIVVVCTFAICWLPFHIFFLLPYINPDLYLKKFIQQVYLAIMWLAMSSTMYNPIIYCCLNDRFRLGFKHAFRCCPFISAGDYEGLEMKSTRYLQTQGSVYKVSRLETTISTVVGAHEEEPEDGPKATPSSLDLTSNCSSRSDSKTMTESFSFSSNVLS

| Compound | inhibition of PAR1-dependent Ca2+ response (PAR1 [1]) | activation of Sub-P receptor (InsP) (substance P (Sub-P)) | activation of PAR4 (InsP) (PAR4) | activation of SSTR2 (InsP) [3] | Agonist Efficacy (PAR1 [4]) | activation of CCKA (InsP) (cholecystokinin A (CCKA)) | InsP stimulation in the absence of the PAR1 receptor [5] | activation of PAR2 (InsP) (PAR2) | agonist activity in platelet aggregation (human platelets) | further results |
| --- | --- | --- | --- | --- | --- | --- | --- | --- | --- | --- |
| PAFISEDASGYL-C (PAFISEDASGYLC) [LBS1] | relatively poor antagonist | – | – | – | – | – | – | – | – | inhibition of PAR1-dependent Ca2+ response (PAR1 [1]; listed as LBS-1): poor antagonist; inhibition of aggregation [2]: did not inhibit |
| CCCCCCCCCCCCCCCC(=O)N[C@@H](C)C(=O)N[C@H](C(=O)N[C@@H](C)C(=O)N[C@@H](CC(N)=O)C(=O)N[C@@H](CCCNC(=N)N)C(=O)N[C@@H](CO)C(=O)N[C@@H](CCCCN)C(=O)N[C@@H](CCCCN)C(=O)N[C@@H](CO)C(=O)N[C@@H](CCCNC(=N)N)C(=O)N[C@@H](C)C(=O)N[C@@H](CC(C)C)C(=O)N[C@@H](Cc1ccccc1)C(N)=O)C(C)C [Pepducin P1pal-13] (Palmitoyl-AVANRSKKSRALF-NH2) | – | did not activate | did not activate | did not activate | 60 − 88% | did not activate | approximately 11% | did not activate | – | activation of CCKB (InsP) (cholecystokinin B (CCKB); COS7 cells): did not activate |
| Y12pal-24: pepducin based on the i3-loop of P2Y12; peptide KELYRS YVRTRGVGKVPRKKVNVF (SEQ ID NO:34) (KELYRSYVRTRGVGKVPRKKVNVF; also: palmitoyl lipid, position not given here) [Pepducin Y12pal-24] | – | – | – | – | – | – | – | – | no agonist activity | inhibition of irreversible platelet aggregation (P2Y12 ADP receptor; 0, 1, 3, or 10 μM pepducin): effective inhibitor of irreversible platelet aggregation; efficacy of inhibition compared with apyrase (P2Y12 ADP receptor; 10 μM pepducin): equivalent in efficacy as addition of saturating amounts of apyrase |
| CCCCCCCCCCCCCCCC(=O)N[C@@H](CCCNC(=N)N)C(=O)N[C@@H](CS)C(=O)N[C@@H](CC(C)C)C(=O)N[C@@H](CO)C(=O)N[C@@H](CO)C(=O)N[C@@H](CO)C(=O)N[C@@H](C)C(=O)N[C@H](C(=O)N[C@@H](C)C(=O)N[C@@H](CC(N)=O)C(=O)N[C@@H](CCCNC(=N)N)C(=O)N[C@@H](CO)C(=O)N[C@@H](CCCCN)C(=O)N[C@@H](CCCCN)C(=O)N[C@@H](CO)C(=O)N[C@@H](CCCNC(=N)N)C(=O)N[C@@H](C)C(=O)N[C@@H](CC(C)C)C(=O)N[C@@H](Cc1ccccc1)C(N)=O)C(C)C [Pepducin P1pal-19] (Palmitoyl-RCLSSSAVANRSKKSRALF-NH2) | completely inhibits the subsequent Ca^2+i response | does not activate | does not activate | does not activate | 90 ± 2% | does not activate | approximately 11% | robustly activate PAR2; also recorded: can fully activate | fully activates platelet aggregation | stimulation of CCKB, % of its maximal activity (cholecystokinin B (CCKB); maximum defined by 300 nM CCK-8): about 30%; stimulation of PLC-beta with delta377 PAR1 mutant (delta377 PAR1): effectively no stimulation of PLC-beta; EC50 (human platelets; read-out: EC50 of activation of platelet aggregation): 8 ± 3 µM; loss of efficacy on S309P mutant (S309P PAR1): 4.3 fold; loss of potency on S309P mutant (S309P PAR1): 13 fold; stimulation of untransfected Rat1 cells (Rat1 alone) ([5]; attributed to endogenous rat PAR1): minor stimulation; agonist activity, platelet intracellular Ca2+ (platelets): causes a rapid Ca^2+i transient |
| CCCCCCCCCCCCCCCC(=O)N[C@H](C(=O)NCC(=O)N[C@@H](C)C(=O)N[C@H](C(=O)N[C@@H](CCCNC(=N)N)C(=O)N[C@@H](CCC(N)=O)C(=O)NCC(=O)N[C@@H](C)C(=O)N[C@@H](CC(N)=O)C(=O)N[C@@H](CCSC)C(=O)N[C@@H](CCCCN)C(=O)NCC(=O)N[C@@H](C)C(=O)N[C@H](C(N)=O)[C@@H](C)CC)[C@@H](C)CC)[C@@H](C)O [MC4pal-14] (Palmitoyl-TGAIRQGANMKGAI-NH2) | – | – | – | – | – | – | – | – | – | IC50 (MC4R; read-out: IC50, inhibitory phase): ~10 µM; stimulation of adenylate cyclase activity (efficacy) (MC4R; relative to alpha-MSH): 40% |
